# From publication PMC10385850, “Modified Hederagenin Derivatives Demonstrate Ex Vivo Anthelmintic Activity against Fasciola hepatica” (Pharmaceutics, 2023)
# Experiments:
# [1] = test system: F. hepatica newly excysted juveniles (NEJs), Italian strain; test: Ex vivo screen against newly excysted juveniles (NEJs), phenotype and motility scoring; format: cell-based, Fasciola hepatica
# Summary of the method: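 Newly excysted juveniles of the Italian strain of F. hepatica were obtained by excysting metacercariae and exposed ex vivo to test compounds at 10 μM final concentration in 0.1% DMSO. Controls were 0.1% DMSO (negative) and 10 μM TCBZ in 0.1% DMSO (positive). Motility was scored from 1 (good/normal) to 5 (no movement), and ultrastructural phenotype changes were scored with an established matrix.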
# [2] = test system: Madin–Darby bovine kidney (MDBK) cells; test: MTT cell viability assay on MDBK cells; format: cell-based; settings: MDBK cells, MTT, 24 h exposure; read-out: CC50 with 95% CI on MDBK cells (cytotoxicity)
# Protocol: MTT cell viability assays were performed on Madin–Darby bovine kidney (MDBK cells) for the five selected hederagenin derivatives (MC014, MC035, MC042, MC055 and MC062) using final concentrations of 100 μM, 75 μM, 50 μM, 25 μM, 10 μM, 5 μM and 1 μM (in 1% DMSO). Negative (1% v/v Triton X-100, Sigma-Aldrich, UK) and positive (1% v/v DMSO or media only) controls were included. The protocol was followed as previously described. Absolute EC50 values were calculated from the corrected absorbance of replicates by non-linear regression, after log transformation of concentrations and data normalization (where DMSO values represents 0% inhibition and TX-100 values represent 100% inhibition) using GrapPad Prism 8.
# [3] = test system: immature F. hepatica flukes (Italian strain); test: Ex vivo motility assay on immature liver flukes (Italian strain), single concentration and dose response; format: cell-based, Fasciola hepatica; settings: 40 µM; for Average motility of 4 parasites with 95% CI at 24 hour time point: score 1 normal to 5 no movement or death; for Effect on immature fluke motility, in words: by 72 h
# Protocol: The six selected compounds (at 40 µM in 0.4% DMSO) were evaluated on immature flukes (n = 4/condition) at 24, 48 and 72 h (Table S4). The protocol for culturing and scoring (motility) of these life stages have been previously described. Due to restricted numbers of immature worms, a dose response assay was conducted only for MC042. Here, immature worms (n = 2/concentration tested) were screened against descending concentrations of MC042 (40 µM, 13.3 µM and 4.4 µM); motility scores were recorded at 24, 48 and 72 h (Table S5). The scoring pattern used is identical to that described for NEJs.
# [4] = test system: adult F. hepatica flukes (Italian strain); test: Ex vivo dose response motility assay on adult liver flukes (Italian strain); format: cell-based, Fasciola hepatica; settings: for Average motility of 3 parasites treated with 4.4 µM, 24 hours / Average motility of 3 parasites treated with 4.4 µM, 48 hours / Average motility of 3 parasites treated with 4.4 µM, 72 hours / Average motility of 3 parasites treated with 13.3 µM, 24 hours / Average motility of 3 parasites treated with 13.3 µM, 48 hours / Average motility of 3 parasites treated with 13.3 µM, 72 hours / Average motility of 3 parasites treated with 40 µM, 24 hours / Average motility of 3 parasites treated with 40 µM, 48 hours / Average motility of 3 parasites treated with 40 µM, 72 hours: adult flukes Italian strain, score 1 to 6
# Protocol: The collection, ex vivo culturing and screening of adult liver fluke (Italian strain; n = 3/condition) was previously described. Dose response assays (40 µM, 13.3 µM and 4.4 µM) were conducted for MC014, MC042, MC035, MC055 and MC062 with motility scores recorded at 24, 48 and 72 h (Table S6).
# [5] = test system: wild strain adult F. hepatica; test: Ex vivo motility assay on adult liver flukes (wild strain); format: cell-based, Fasciola hepatica; settings: 40 µM; for Average motility of 4 parasites with 95% CI at 72 hour time point: wild strain adult flukes, score 1 good/normal to 6 no movement or dead
# Protocol: Due to the high number of active molecules and a shortage of Italian strain adult liver flukes, the eleven hit compounds were screened for 72 h at 40 µM (in 0.4% DMSO) on wild strain adult F. hepatica (n = 4/condition) of unknown provenance (Table S3). The protocol for culturing and scoring (motility) the activity of these compounds was previously described (1—good/normal; 2—moderate; 3—resting (less than 10 s pulses of body and head), 4—apathetic (less than 2 s pulses of body and head), 5—paralysis and 6–no movement or dead worms). Six compounds were deemed active in these assays and were selected for further screening.
# [6] = 48 h, immature flukes, score 1 to 5
# [7] = 72 h, immature flukes, score 1 to 5
Structure (SMILES),"Average motility of 4 parasites with 95% CI at 24 hour time point ([3]; 24 h, immature flukes)","Average motility of 4 parasites with 95% CI at 48 hour time point [3, 6]","Average motility of 4 parasites with 95% CI at 72 hour time point [3, 7]","Effect on immature fluke motility, in words [3]","Average motility of 3 parasites treated with 4.4 µM, 24 hours [4]","Average motility of 3 parasites treated with 4.4 µM, 48 hours [4]","Average motility of 3 parasites treated with 4.4 µM, 72 hours ([4]; 72 h)","Average motility of 3 parasites treated with 13.3 µM, 24 hours [4]","Average motility of 3 parasites treated with 13.3 µM, 48 hours [4]","Average motility of 3 parasites treated with 13.3 µM, 72 hours ([4]; 72 h)","Average motility of 3 parasites treated with 40 µM, 24 hours [4]","Average motility of 3 parasites treated with 40 µM, 48 hours [4]","Average motility of 3 parasites treated with 40 µM, 72 hours ([4]; 72 h)",Average motility of 4 parasites with 95% CI at 72 hour time point [5],also measured
"CC1(C)CC[C@]2(NC(=O)N3CCNCC3)CC[C@]3(C)C(=CCC4[C@@]5(C)CCC6OC(C)(C)OC[C@@]6(C)C5CC[C@]43C)C2C1 (stereo partly drawn) [MC035, N-((4aR,6aR,6bS,8aS,14bR)-2,2,4a,6a,6b,11,11,14b-Octamethyl-4a,5,6,6a,6b,7,8,9,10,11,12,12a,14,14a, 14b,15,16,16a-octadecahydro-4H-piceno[3,4-d][1,3]dioxin-8a(4bH)-yl)piper-azine-1-carboxamide]",5.00 (5.0;5.0),5.00 (5.0;5.0),5.00 (5.0;5.0),paralyzed the assayed immature flukes,1.00 (1.0;1.0),1.00 (1.0;1.0),1.00 (1.0;1.0),1.00 (1.0;1.0),1.00 (1.0;1.0),3.66 (2.3; 4.9),2.33 (1.6;2.9),4.33 (3.6;4.9),5.00 (3.8;6.1),5.75 (5.2; 6.2),"Average motility of 25 NEJs with 95% CI, 24 hours ([1]; 10 µM, 24 h, motility score 1 good/normal to 5 no movement): 5.00 (5.0;5.0); Average phenotype of 25 NEJs with 95% CI, 24 hours ([1]; 10 µM, 24 h, ultrastructure score 1 normal to 6 dead or dissolved): 6.00 (6.0;6.0); Average motility of 25 NEJs with 95% CI, 48 hours ([1]; 10 µM, 48 h, motility score 1 good/normal to 5 no movement): 5.00 (5.0;5.0); Average phenotype of 25 NEJs with 95% CI, 48 hours ([1]; 10 µM, 48 h, ultrastructure score 1 normal to 6 dead or dissolved): 6.00 (6.0;6.0); Average phenotype of 25 NEJs with 95% CI, 72 hours ([1]; 10 µM, 72 h, ultrastructure score 1 normal to 6 dead or dissolved): 6.00 (6.0;6.0); Activity against NEJs (first screen), in words ([1]; 10 µM, 72 h co-culture): maximal alterations to both phenotype/ultrastructure and motility; CC50 [2]: 79.8 µM; EC50 ([4]; adult flukes, motility, 72 h, read-out: EC50 with 95% CI on Adult Flukes (motility), 72 hour): 14.3 µM; Effect on adult fluke (Italian strain) movement, in words ([4]; dose response, MC042 statement at 40 μM after 72 h): Decreased movement; Effect on wild strain adult fluke motility, in words ([5]; 72 h): partial paralysis"
"CSc1nc2cc(Cl)c(Oc3cccc(Cl)c3Cl)cc2[nH]1 [Triclabendazole, reference compound]","5.0 (5.0,5.0)","5.0 (5.0,5.0)","5.0 (5.0,5.0)",completely immobile by 72 h,1.00 (1.0; 1.0),1.00 (1.0; 1.0),1.00 (1.0; 1.0),1.00 (1.0;1.0),1.33 (0.6;1.9),2.00 (0.8; 3.1),2.33 (1.6; 2.9),5.66 (5.0; 6.3),6.00 (6.0; 6.0),6.00 (6.0;6.0),"Average motility of NEJs with 95% CI, 24 hours (positive control) ([1]; 40µM, 24 h, 50 NEJs, score 1 to 5): 5.00 (5.0;5.0); Average phenotype of NEJs with 95% CI, 24 hours (positive control) ([1]; 40µM, 24 h, 50 NEJs, score 1 to 6): 6.00 (6.0;6.0); Average motility of NEJs with 95% CI, 48 hours (positive control) ([1]; 40µM, 48 h, 50 NEJs, score 1 to 5): 5.00 (5.0;5.0); Average phenotype of NEJs with 95% CI, 48 hours (positive control) ([1]; 40µM, 48 h, 50 NEJs, score 1 to 6): 6.00 (6.0;6.0); Average motility of NEJs with 95% CI, 72 hours (positive control) ([1]; 40µM, 72 h, 50 NEJs, score 1 to 5): 5.00 (5.0;5.0); Average phenotype of NEJs with 95% CI, 72 hours (positive control) ([1]; 40µM, 72 h, 50 NEJs, score 1 to 6): 6.00 (6.0;6.0); Average motility of 2 parasites treated with 40 µM, 24 hours ([3]; 24 h, immature flukes, dose response, score 1 to 5): 5.00 (5.0; 5.0); Average motility of 2 parasites treated with 40 µM, 48 hours ([3]; 48 h, immature flukes, dose response, score 1 to 5): 5.00 (5.0; 5.0); Average motility of 2 parasites treated with 40 µM, 72 hours ([3]; 72 h, immature flukes, dose response, score 1 to 5): 5.00 (5.0; 5.0)"
